Drawing on patent publication US20120129875A1, “SUBSTITUTED QUINAZOLINES AS FUNGICIDES” (SYNGENTA CROP PROTECTION, LLC, priority 2009, published 2012), this text covers pest or weed control for 80 molecules.

In the assay the test system is Phaeosphaeria nodorum (Septoria nodorum). As to the kind of experiment: Phaeosphaeria nodorum (Septoria nodorum) / wheat / leaf disc preventative (glume blotch). It is filed as in vivo. To be noted: Parastagonospora nodorum, foliar, wheat leaf segments cv. Kanzler on agar, inoculated 2 days after application, vs untreated control, read-out: disease control. The method, then:
Phaeosphaeria nodorum (Septoria nodorum)/Wheat/Leaf Disc Preventative (Glume Blotch) Wheat leaf segments cv. Kanzler are placed on agar in a multiwell plate (24-well format) and sprayed with the formulated test compound diluted in water. The leaf disks are inoculated with a spore suspension of the fungus 2 days after application. The inoculated test leaf disks are incubated at 20° C. and 75% rh under a light regime of 12 h light/12 h darkness in a climate cabinet and the activity of a compound is assessed as percent disease control compared to untreated when an appropriate level of disease damage appears in untreated check leaf disks (5-7 days after application).

SMILES strings stand for the structures.

On to `OCc1nc(-c2cccc(Cc3ccccc3)n2)nc2ccccc12` [12/16], for which the pest or weed control at 200 ppm was no less than 80%. With `OCc1cc2ccccc2cc1-c1cccc(-c2ncc3ccccc3n2)n1` [2/116] the figure was no less than 80%; with `COc1ccc(C=O)cc1-c1cccc(-c2ncc3ccccc3n2)n1` [2/125], no less than 80%; with `COC(=O)Nc1ccc(Cc2cccc(-c3ncc4ccccc4n3)n2)cc1` [6/39], no less than 80%. With `COc1ccc(Cc2cccc(-c3ncc4ccccc4n3)n2)c(Cl)c1Cl` [6/23], the pest or weed control at 200 ppm is no less than 80%. With `Cc1cc(-c2cccc(-c3ncc4ccccc4n3)n2)c(C)cc1F` [2/133] the figure was no less than 80%. In the case of `Cc1ccc(-c2ncc3ccccc3n2)nc1-c1ccc(CC#N)cc1` [3/126], the pest or weed control at 200 ppm is no less than 80%. With `Fc1cccc(F)c1-c1cccc(-c2ncc3ccccc3n2)n1` [2/104] the figure was no less than 80%; with `O=[N+]([O-])c1ccccc1-c1cccc(-c2ncc3ccccc3n2)n1` [2/112], no less than 80%; with `Cc1ccccc1Cc1nc(-c2ncc3ccccc3n2)ccc1C` [7/20], no less than 80%. As for `COc1cccc(Cc2cccc(-c3ncc4ccccc4n3)n2)c1OC` [6/30], the figure is no less than 80%; as for `OCc1c(-c2cccc(-c3ncc4ccccc4n3)n2)ccc2ccccc12` [2/115], no less than 80%; as for `Fc1cc(F)c(F)c(Cc2cccc(-c3ncc4ccccc4n3)n2)c1` [6/29], no less than 80%. As for `COC(=O)c1cccc(-c2nc(-c3ncc4ccccc4n3)ccc2C)c1` [3/123], the figure is no less than 80%; as for `Cc1ccc(-c2ncc3ccccc3n2)nc1-c1ccc2ccccc2c1` [3/106], no less than 80%. Turning to `CCc1nc(-c2cccc(Cc3ccccc3)n2)nc2ccccc12` [12/15], the pest or weed control at 200 ppm was no less than 80%.

On to `Cc1ccc(Cc2cccc(-c3ncc4ccccc4n3)n2)c(C)c1` [6/38], for which the pest or weed control at 200 ppm was no less than 80%. Consider `CCc1ccc(-c2nc(-c3ncc4ccccc4n3)ccc2C)cc1` [3/131], for which the pest or weed control at 200 ppm is no less than 80%. As for `Fc1cc(Br)ccc1Cc1cncc(-c2ncc3ccccc3n2)c1` [6/35], the figure is no less than 80%; as for `Cc1ccc(-c2nc(C)c3cccc(C)c3n2)nc1-c1ccccc1` [11/16], no less than 80%; as for `CCCc1nc(-c2cccc(C(Cc3ccccc3)c3ccccc3)n2)nc2ccccc12` (centres unmarked) [12/13], no less than 80%.

On to `Cc1ccc(-c2ncc3ccccc3n2)nc1-c1ccccc1N` [3/102], for which the pest or weed control at 200 ppm is no less than 80%. As for `Cc1ccc2cnc(-c3ccc(C)c(-c4ccccc4)n3)nc2c1` [11/12], the figure is no less than 80%. As for `Cc1ccc(-c2ncc3ccccc3n2)nc1-c1ccc(Cl)cc1C(F)(F)F` [3/129], the figure is no less than 80%; as for `COc1ccccc1Cc1nc(-c2ncc3ccccc3n2)ccc1C` [7/21], no less than 80%; as for `Cc1ccc(-c2ncc3ccccc3n2)nc1-c1cccc(Cl)c1` [3/109], no less than 80%. With `c1ccc(CCc2cccc(-c3ncc4ccccc4n3)n2)cc1` [10/17] the figure was no less than 80%; with `COc1ccc(-c2cccc(-c3ncc4ccccc4n3)n2)cc1F` [2/57], no less than 80%. In the case of `COc1ccc(-c2ncc3ccccc3n2)nc1-c1ccc(F)cc1` [14/5], the pest or weed control at 200 ppm is no less than 80%. As for `COc1ccc(-c2nc(-c3ncc4ccccc4n3)ccc2OC)cc1` [14/3], the figure is no less than 80%; as for `CCCc1ccc(-c2nc(-c3ncc4ccccc4n3)ccc2C)cc1` [3/114], no less than 80%.

Take `COc1ccc(-c2ncc3ccccc3n2)nc1-c1ccc(C)cc1` [14/2]: the pest or weed control at 200 ppm was no less than 80%. With `Cc1ccc(C)c(Cc2cccc(-c3ncc4ccccc4n3)n2)c1` [6/41] the figure was no less than 80%. Regarding `COc1ccc2nc(-c3ccc(C)c(-c4ccccc4)n3)nc(C)c2c1` [11/20], the pest or weed control at 200 ppm was no less than 80%.

Consider `N#Cc1ccccc1-c1cccc(-c2ncc3ccccc3n2)n1` [2/61], for which the pest or weed control at 200 ppm is no less than 80%. With `COc1ccc(OC)c(Cc2cccc(-c3ncc4ccccc4n3)n2)c1` [6/43] the figure was no less than 80%. With `Cc1ccc(-c2ncc3cccc(Cl)c3n2)nc1-c1ccccc1` [11/13], the pest or weed control at 200 ppm was no less than 80%. With `CCOc1ccc(-c2nc(-c3ncc4ccccc4n3)ccc2C)cc1` [3/107] the figure was no less than 80%; with `c1ccc(Oc2cccc(-c3ncc4ccccc4n3)n2)cc1` [4/24], no less than 80%. As for `Cc1ccc(-c2nc(C)c3c(C)cccc3n2)nc1-c1ccccc1` [11/21], the figure is no less than 80%; as for `COc1cc(F)c(-c2cccc(-c3ncc4ccccc4n3)n2)c(F)c1` [2/131], no less than 80%; as for `COc1cc(F)c(F)cc1-c1nc(-c2ncc3ccccc3n2)ccc1C` [3/137], no less than 80%. With `Cc1ccc(-c2nc(-c3ncc4ccccc4n3)ccc2C)cc1[N+](=O)[O-]` [3/120] the figure was no less than 80%; with `COc1cc(F)c(F)cc1-c1cccc(-c2ncc3ccccc3n2)n1` [2/128], no less than 80%. As for `Cc1ccc(-c2ncc3ccc(Cl)cc3n2)nc1-c1ccccc1` [11/11], the pest or weed control at 200 ppm is no less than 80%. Take `Fc1ccc(Cc2cccc(-c3ncc4ccccc4n3)n2)cc1F` [6/24]: the pest or weed control at 200 ppm is no less than 80%. With `COC(=O)c1ccc(-c2nc(-c3ncc4ccccc4n3)ccc2C)cc1` [3/103] the figure was no less than 80%; with `C(=C\c1cccc(-c2ncc3ccccc3n2)n1)/c1ccccc1` [10/20], no less than 80%. `N#Cc1c(Cl)cccc1Cc1cccc(-c2ncc3ccccc3n2)n1` [6/33]: the pest or weed control at 200 ppm was no less than 80%.

As to `Cc1ccc(Cc2cccc(-c3ncc4ccccc4n3)n2)cc1Cl` [6/42], the pest or weed control at 200 ppm is no less than 80%. With `c1cc(-c2ncc3ccccc3n2)nc(-c2cc3ccccc3c3ccccc23)c1` [2/119] the figure was no less than 80%; with `N#Cc1ccc(Cc2cccc(-c3ncc4ccccc4n3)n2)cc1` [6/31], no less than 80%. With `Cc1ccc(-c2ncc3cccc(C)c3n2)nc1-c1ccccc1` [11/15] the figure was no less than 80%; with `CC(=O)c1ccc(-c2nc(-c3ncc4ccccc4n3)ccc2C)cc1` [3/118], no less than 80%; with `Cc1ccc(-c2ncc3ccccc3n2)nc1-c1c(F)cccc1F` [3/105], no less than 80%. With `COc1cc(-c2nc(-c3ncc4ccccc4n3)ccc2C)cc(OC)c1OC` [3/110] the figure was no less than 80%.

For the molecule `Cc1cc(C)c(Cc2cccc(-c3ncc4ccccc4n3)n2)c(C)c1` [6/40], the pest or weed control at 200 ppm was no less than 80%. With `Cc1ccc(-c2ncc3c(C)cccc3n2)nc1-c1ccccc1` [11/18] the figure was no less than 80%.

As for `Fc1cccc(F)c1Cc1cccc(-c2ncc3ccccc3n2)n1` [6/26], the pest or weed control at 200 ppm was no less than 80%. Regarding `COc1cccc(OC)c1-c1cccc(-c2ncc3ccccc3n2)n1` [2/113], the pest or weed control at 200 ppm was no less than 80%.

Regarding `CSc1cccc(-c2nc(-c3ncc4ccccc4n3)ccc2C)c1` [3/125], the pest or weed control at 200 ppm is no less than 80%. As for `Clc1ccc(Cc2cccc(-c3ncc4ccccc4n3)n2)c(Cl)c1` [6/37], the figure is no less than 80%; as for `COc1ccc2nc(-c3ccc(C)c(-c4ccccc4)n3)ncc2c1` [11/19], no less than 80%; as for `Cc1ccc(-c2ncc3ccccc3n2)nc1-c1cccc(-c2ccccc2)c1` [3/134], no less than 80%. On to `Fc1ccc(Cc2cccc(-c3ncc4ccccc4n3)n2)c(F)c1F` [6/28], for which the pest or weed control at 200 ppm is no less than 80%. With `Cc1ccc(-c2ncc3ccccc3n2)nc1-c1ccc(Cl)c(F)c1Cl` [3/138] the figure was no less than 80%; with `Cc1ccc(-c2ncc3ccccc3n2)nc1/C=C/c1ccccc1` [10/23], no less than 80%; with `COCCOc1nc(-c2cccc(Cc3ccccc3)n2)nc2ccccc12` [12/10], no less than 80%. With `Fc1ccc(Br)c(Cc2cccc(-c3ncc4ccccc4n3)n2)c1` [6/34] the figure was no less than 80%; with `COc1ccc(-c2ncc3ccccc3n2)nc1-c1ccccc1` [14/4], no less than 80%; with `Clc1ccc(Cc2cccc(-c3ncc4ccccc4n3)n2)cc1Cl` [6/27], no less than 80%. With `CCOCc1ccc(-c2nc(-c3ncc4ccccc4n3)ccc2C)cc1` [3/142] the figure was no less than 80%; with `Fc1ccc(Cc2cccc(-c3ncc4ccccc4n3)n2)c(Cl)c1` [6/20], no less than 80%. On to `CC(C)Oc1nc(-c2cccc(Cc3ccccc3)n2)nc2ccccc12` [12/9], for which the pest or weed control at 200 ppm was no less than 80%. As for `O=Cc1ccc(-c2cccc(-c3ncc4ccccc4n3)n2)c(F)c1F` [2/111], the figure is no less than 80%. With `CC(=O)c1cccc(-c2nc(-c3ncc4ccccc4n3)ccc2C)c1` [3/133] the figure was no less than 80%. With `Cc1ccc(-c2ncc3ccccc3n2)nc1/C=C\c1ccccc1` [10/22] the figure was no less than 80%.

For `Cc1ccc(-c2ncc3ccccc3n2)nc1-c1cccc([N+](=O)[O-])c1` [3/104], the pest or weed control at 200 ppm is no less than 80%. As for `Cc1ccc(-c2nc(C)c3cccc(Cl)c3n2)nc1-c1ccccc1` [11/14], the figure is no less than 80%.

As to `Cc1c(Cl)cccc1-c1cccc(-c2ncc3ccccc3n2)n1` [2/126], the pest or weed control at 200 ppm is no less than 80%.
